Measured values from ChEMBL document CHEMBL4402608 (J Med Chem, 2020).

What was measured:
Type in all cases: cell-based
[1] = target: D(3) dopamine receptor (Homo sapiens, UniProt P35462); assay: Agonist activity at human D3R expressed in CHOK1 cells assessed as induction of beta-arrestin recruitment measured after 90 mins by beta-galactosidase based PathHunter assay; details: read-out: EC50
[2] = target: T1, D(2) dopamine receptor (Homo sapiens, UniProt P14416); assay: Agonist activity at human D2R expressed in CHOK1 cells assessed as induction of beta-arrestin recruitment measured after 90 mins by beta-galactosidase based PathHunter assay
[3] = target: T1, D(2) dopamine receptor; assay: Antagonist activity at human D2R expressed in CHOK1 cells assessed as inhibition of dopamine-induced beta-arrestin recruitment measured after 120 mins by beta-galactosidase based PathHunter assay
[4] = target: T1, D(2) dopamine receptor; assay: Antagonist activity at human D2R expressed in CHOK1 cells assessed as inhibition of dopamine-induced beta-arrestin recruitment measured after 120 mins by beta-galactosidase based PathHunter assay relative to sulpiride; details: 2 h, read-out: Imax

Row | SMILES | EC50 [1] [nM] | EC50 ([2]; read-out: EC50) [nM] | IC50 ([3]; read-out: IC50) [nM] | EC50 [2] | Emax [4] [%] | IC50 [3]
1 | COc1ccc(OCCN2CCN(C(=O)c3cc4cc(C)ccc4[nH]3)CC2)cc1 | 611 | > 50000 | > 100000 | – | – | –
2 | Cc1ccc(OCCN2CCN(C(=O)c3cc4ccccc4[nH]3)CC2)cc1C | 610 | – | 13000 | Not Active | 88 | –
3 | O=C(c1cc2ccccc2[nH]1)N1CCN(CCOc2ccccn2)CC1 | 3500 | – | > 100000 | Not Active | – | –
4 | O=C(c1ccc[nH]1)N1CCN(CCOc2cccnc2)CC1 | 118 | 6100 | > 100000 | – | – | –
5 | COc1ccc(OCCN2CCN(C(=O)c3cc4ccccc4n3C)CC2)cc1 | 310 | – | 9600 | Not Active | 105 | –
6 | O=C(c1cc2ccccc2[nH]1)N1CCN(CCOc2cccnc2)CC1 | 7 | 570 | – | – | – | Not Active
7 | Cn1c(C(=O)N2CCN(CCOc3cccnc3)CC2)cc2ccccc21 | 37.6 | 6200 | – | – | – | Not Active
8 | Cc1ccc2[nH]c(C(=O)N3CCN(CCOc4cccnc4)CC3)cc2c1 | 13 | 1300 | – | – | – | Not Active
9 | COc1ccc(OCCN2CCN(C(C)=O)CC2)cc1 | 9700 | – | – | Not Active | – | Not Active
10 | O=C(c1cc2ccccc2[nH]1)N1CCN(CCOc2cncc(Cl)c2)CC1 | 5 | 790 | – | – | – | Not Active
11 | COc1ccc(OCCN2CCN(C(=O)c3[nH]c4ccccc4c3C)CC2)cc1 | 1900 | 4400 | > 100000 | – | – | –
12 | COc1cccc(OCCN2CCN(C(=O)c3cc4cccnc4[nH]3)CC2)c1 | 50 | 128 | – | – | – | Not Active
13 | O=C(c1cc2ccccc2[nH]1)N1CCN(CCOc2ccccc2)CC1 | 9.2 | 1800 | 535 | – | 37 | –
14 | O=C(c1cc2ccccc2[nH]1)N1CCN(CCOc2ccc(Cl)cc2)CC1 | 114 | – | > 50000 | Not Active | – | –
15 | COc1ccc(OCCN2CCN(C(=O)c3cc4ccncc4[nH]3)CC2)cc1 | 810 | 7800 | > 100000 | – | – | –
16 | COc1ccc(OCCN2CCN(C(=O)c3cc4ccccc4o3)CC2)cc1 | – | – | 7700 | Not Active | 111 | –
17 | COc1ccc(OCCN2CCN(C(=O)C3CCCCC3)CC2)cc1 | > 50000 | – | > 50000 | Not Active | – | –
18 | COc1ccc(OC(C)CN2CCN(C(=O)c3ccc(OC)cc3)CC2)cc1 (configuration not stated) | – | – | 18000 | Not Active | 89 | –
19 | O=C(c1cc2ccccc2[nH]1)N1CCN(CCOc2ccncc2)CC1 | 472 | – | > 100000 | Not Active | – | –
20 | O=C(c1cc2ncccc2[nH]1)N1CCN(CCOc2cccnc2)CC1 | 200 | 3000 | – | – | – | Not Active
21 | COc1cccc(OCCN2CCN(C(=O)c3cc4cnccc4[nH]3)CC2)c1 | 280 | 830 | 7400 | – | 30 | –
